Experimental data: paper PMC6213047, “Design of Antibacterial Agents: Alkyl Dihydroxybenzoates against Xanthomonas citri subsp. citri” (International Journal of Molecular Sciences, 2018)
Like-named read-outs stand apart in the source and are kept apart here.

Experiments:
[1] = Partition coefficient log Po/w by HPLC (OECD 117); assay type: physicochemical; settings: HPLC method, OECD 117, methanol:water 3:1
Procedure: The analyses were performed with the use of an isocratic flow in methanol: water (3:1) at 1.0 mL min^−1. We injected 20.0 μL and analyses were performed at 254 nm. We used as reference compounds thiourea, phenol, acetophenone, benzoic acid, benzene, toluene, biphenyl, fluoranthene and triphenylamine in order to construct the curve log K × log Po/w. The lipophilicity of alkyl dihydroxybenzoates was determined from their retention times and interpolation in linearity curve log K × log Po/w. We performed the analyses in duplicate.

[2] = tested on: X. citri subsp. citri strain 306 (IBSBF 1594); assay: MIC by Resazurin Microtiter Assay (REMA); assay type: cell-based, Xanthomonas citri subsp. citri; settings: Xanthomonas citri, 12 h
Procedure: The antibacterial potential of carboxylic acids and their esters were compared to copper oxychloride (a commercial active often used to combat citrus canker). Minimal inhibitory concentration (MIC) values were determined by REMA assay, which measures cellular respiratory activity.
(§1) The antibacterial activity of alkyl dihydroxybenzoates and the determination of minimum inhibition concentration (MIC) were performed by the fluorimetric method Resazurin Microtiter Assay (REMA) with some modifications. An overnight culture of X. citri subsp. citri strain 306 (IBSBF 1594) was grown in 20 mL in Nitrogen Yeast Glycerol (NYG) at 29 °C in constant agitation of 180–200 rpm. After 12 h, the Xcc inoculum was dispersed in NYG medium and distributed into a 96 well microtiter plate to a final volume of 100 μL per well (10^5 CFU per well). Stock solutions of tested compounds at 10 mg mL^−1 were prepared in dimethyl sulfoxide (DMSO) and dispersed in NYG medium to obtain 1% DMSO and the final compound concentration range of 0.78–100 μg mL^−1. The negative control was constituted of 100 μL culture medium. In addition, the copper oxychloride was tested as a comparison to alkyl dihydroxybenzoates and kanamycin (20 μg mL^−1), which was used as a control antibiotic. The plate was subsequently incubated at 29 °C for 12 h, and 15 μg mL^−1 freshly prepared resazurin solution in water was added to each well, and the plate was incubated for 2 h. The fluorescence was determined on a Synergy H1 (BioTek, Winooski, VT, USA) microplate reader using the excitation and emission filters at wavelengths of 530 and 590 nm respectively. After the REMA assay, the minimum bactericidal concentration (CBM) assay was performed using a 96-pin stainless steel plate replicator, accurately transferring the wells from the REMA plate to Petri dishes Petri dishes were incubated in oven B.O.D. at 29 °C for 24 to 48 h. The experiments were performed in triplicate.

[3] = tested on: X. citri subsp. citri strain 306 (IBSBF 1594); assay: MBC, REMA plates replicated to Petri dishes; assay type: cell-based, Xanthomonas citri subsp. citri; settings: Xanthomonas citri
Procedure: The minimal bactericidal concentration (MBC) was determined by observing the bacterial growth in Petri dishes transferred from the REMA plates.
as §1

[4] = REMA, NYG medium, 29 °C, read-out: MIC
[5] = REMA, NYG medium, 29 °C, read-out: MIC in μM
[6] = Petri dishes from REMA plates, 29 °C, 24 to 48 h, read-out: MBC

| SMILES | chromatographic logP [1] | MIC [2, 4] [µg/mL] | MIC [2, 5] [µM] | MBC [3, 6] [µg/mL] | MIC ([2]; REMA, NYG medium, 29 °C) [µg/mL] | MIC ([2]; read-out: MIC in μM, REMA, NYG medium, 29 °C, 12 h) [µM] | MBC [3] [µg/mL] |
| --- | --- | --- | --- | --- | --- | --- | --- |
| O=C(O)c1ccc(O)cc1O [2,4 DHB acid, 2,4 dihydroxybenzoic acid, reference compound] | 2.6 | > 100 | > 648 | > 100 | – | – | – |
| O=C(O)c1cc(O)ccc1O [2,5 DHB acid, 2,5 dihydroxybenzoic acid, reference compound] | 2.8 | > 100 | > 648 | > 100 | – | – | – |
| O=C(O)c1ccc(O)c(O)c1 [3,4 DHB acid, 3,4 dihydroxybenzoic acid, reference compound] | 0.8 | > 100 | > 648 | > 100 | – | – | – |
| CCOC(=O)c1ccc(O)cc1O [Compound 1] | 2.8 | > 100 | > 548 | > 100 | – | – | – |
| CCCCOC(=O)c1ccc(O)cc1O [Compound 2] | 3.9 | – | 189 | 50 | – | – | – |
| CCCCCCOC(=O)c1ccc(O)cc1O [Compound 3] | 5 | – | 84 | 50 | – | – | – |
| CCCCCCCCOC(=O)c1ccc(O)cc1O [Compound 5] | 6.1 | > 100 | > 375 | > 100 | – | – | – |
| CCCCCCCCCOC(=O)c1ccc(O)cc1O [Compound 6] | 6.2 | > 100 | > 356 | > 100 | – | – | – |
| CCCCCCCCCCOC(=O)c1ccc(O)cc1O [Compound 7] | 6.9 | > 100 | > 340 | > 100 | – | – | – |
| CCCCCCCCCCCCOC(=O)c1ccc(O)cc1O [Compound 8, dodecyl 2,4 dihydroxybenzoate] | 7 | > 100 | > 310 | > 100 | – | – | – |
| CC(C)OC(=O)c1ccc(O)cc1O [Compound 9] | 2.6 | > 100 | > 510 | > 100 | – | – | – |
| O=C(OC1CCCC1)c1ccc(O)cc1O [Compound 10] | 2.2 | > 100 | > 450 | > 100 | – | – | – |
| O=C(OC1CCCCC1)c1ccc(O)cc1O [Compound 11] | 4 | – | 171 | 100 | – | – | – |
| CCOC(=O)c1cc(O)ccc1O [Compound 13] | 2.4 | > 100 | > 549 | > 100 | – | – | – |
| CCCCOC(=O)c1cc(O)ccc1O [Compound 14] | 3.4 | > 100 | > 475 | > 100 | – | – | – |
| CCCCCCOC(=O)c1cc(O)ccc1O [Compound 15] | 4.5 | – | 140 | 50 | – | – | – |
| CCCCCCCCOC(=O)c1cc(O)ccc1O [Compound 17] | 5.2 | > 100 | > 375 | > 100 | – | – | – |
| CCCCCCCCCOC(=O)c1cc(O)ccc1O [Compound 18] | 5.7 | > 100 | > 357 | > 100 | – | – | – |

| SMILES | chromatographic logP [1] | MIC [2, 4] [µg/mL] | MIC [2, 5] [µM] | MBC [3, 6] [µg/mL] | MIC ([2]; REMA, NYG medium, 29 °C) [µg/mL] | MIC ([2]; read-out: MIC in μM, REMA, NYG medium, 29 °C, 12 h) [µM] | MBC [3] [µg/mL] |
| --- | --- | --- | --- | --- | --- | --- | --- |
| CCCCCCCCCCOC(=O)c1cc(O)ccc1O [Compound 19] | 6.3 | > 100 | > 340 | > 100 | – | – | – |
| CCCCCCCCCCCCOC(=O)c1cc(O)ccc1O [Compound 20] | 6.8 | > 100 | > 310 | > 100 | – | – | – |
| CC(C)OC(=O)c1cc(O)ccc1O [Compound 21] | 2.2 | > 100 | > 510 | > 100 | – | – | – |
| O=C(OC1CCCC1)c1cc(O)ccc1O [Compound 22] | 3 | 83.5 | 375 | 100 | – | – | – |
| O=C(OC1CCCCC1)c1cc(O)ccc1O [Compound 23] | 3.5 | 90.4 | 382 | 100 | – | – | – |
| O=C(OCCc1ccccc1)c1cc(O)ccc1O [Compound 24] | 3.1 | 59.7 | 231 | 100 | – | – | – |
| CCOC(=O)c1ccc(O)c(O)c1 [Compound 25] | 1.7 | > 100 | > 549 | > 100 | – | – | – |
| CCCCOC(=O)c1ccc(O)c(O)c1 [Compound 26] | 2.6 | > 100 | > 475 | > 100 | – | – | – |
| CCCCCCOC(=O)c1ccc(O)c(O)c1 [Compound 27] | 3.7 | 44.4 | 186 | 50 | – | – | – |
| CCCCCCCCOC(=O)c1ccc(O)c(O)c1 [Compound 29] | 4.9 | 31.2 | 117 | 50 | – | – | – |
| CCCCCCCCCOC(=O)c1ccc(O)c(O)c1 [Compound 30] | 5.5 | 26.7 | 95 | 50 | – | – | – |
| CCCCCCCCCCOC(=O)c1ccc(O)c(O)c1 [Compound 31] | – | – | – | – | > 100 | > 340 | 100 |
| CCCCCCCCCCCCOC(=O)c1ccc(O)c(O)c1 [Compound 32] | 6.9 | > 100 | > 310 | > 100 | – | – | – |
| CC(C)OC(=O)c1ccc(O)c(O)c1 [Compound 33] | 1.4 | > 100 | > 510 | > 100 | – | – | – |
| O=C(OC1CCCC1)c1ccc(O)c(O)c1 [Compound 34] | 2.2 | > 100 | > 450 | > 100 | – | – | – |
| O=C(OC1CCCCC1)c1ccc(O)c(O)c1 [Compound 35] | 2.7 | > 100 | > 423 | > 100 | – | – | – |
| O=C(OCCc1ccccc1)c1ccc(O)c(O)c1 [Compound 36] | 2.4 | < 100 | 345 | 100 | – | – | – |
